Data: patent publication US20250057837A1, “Methods for Treating HCV” (priority 2015, published 2025)

Assays:
[1] = test system: GT1a replicon NS3 A156T variant; assay: Resistant colony selection, GT1a subgenomic replicon cells; assay type: cell-based, hepatitis C virus; conditions: A156T in GT1a
[2] = test system: GT1b replicon NS3 A156V variant; assay: Resistant colony selection, GT1b subgenomic replicon cells; assay type: cell-based, hepatitis C virus; conditions: A156V in GT1b
[3] = test system: GT3a NS3 protease replicon A156G variant; assay: Resistant colony selection, replicon containing GT3a NS3 protease (A156G); assay type: cell-based, hepatitis C virus; conditions: A156G alone
[4] = test system: GT3a NS3 protease replicon Q168R co-selected with Y56H; assay: Resistant colony selection, replicon containing GT3a NS3 protease (Q168R+Y56H); assay type: cell-based, hepatitis C virus
[5] = test system: resistance-associated variants in GT 1a (H77) replicon; assay: Activity against resistance-associated variants in GT 1a replicon; assay type: cell-based, hepatitis C virus
[6] = test system: resistance-associated variants in GT 1b (Con-1) replicon; assay: Activity against resistance-associated variants in GT 1b replicon; assay type: cell-based, hepatitis C virus
[7] = assay type: in vivo, human; conditions: for impact of HCV genotype and RBV coadministration on exposures: GT1-, GT2- or GT3-infected subjects
Excerpt: Blood samples for pharmacokinetic analysis were collected throughout the study treatment period.

[8] = Phase 1 drug-drug interaction with tacrolimus in healthy subjects; conditions: coadministered with tacrolimus 1 mg
[9] = Phase 1 drug-drug interaction with cyclosporine in healthy subjects; conditions: coadministered with cyclosporine 100 mg
[10] = Phase 1 single and multiple ascending dose and food effect study of Compound 2 in healthy subjects
Description: This was a blinded, randomized, placebo-controlled Phase 1 study. […] Safety and tolerability were assessed throughout the study.

[11] = human, in vivo

Row | Structure (SMILES) | reduced susceptibility conferred by variant [1] [fold] | reduced susceptibility conferred by variant [2] [fold] | loss in susceptibility conferred by variant [3] [fold] | loss in susceptibility conferred by variant [4] [fold] | inhibitory activity against NS3 resistance-associated variants ([5]; V36M, R155K, D168A and D168V in GT 1a (H77)) | activity against variants at NS3 amino acid positions 155 and 168 ([5]; common GT1a variants conferring resistance to other HCV protease inhibitors) | activity against NS5A inhibitor and NS5B inhibitor resistance-associated variants ([5]; e.g. M28T, M28V, Q30D, Q30R, Y93C, Y93H, Y93N, L31V+Y93H, C316Y, M414T, Y448C, Y448H, S556G and S559G in GT1a) | inhibitory activity against NS3 resistance-associated variants ([6]; T54A, R155K, D168V and V170A in GT 1b (Con-1)) | activity against variants at NS3 amino acid positions 155 and 168 ([6]; common GT1b variants conferring resistance to other HCV protease inhibitors) | activity against NS5A inhibitor and NS5B inhibitor resistance-associated variants ([6]; e.g. L28T, Y93H, S282T, C316Y, Y448H and S556G in GT 1b) | impact of HCV genotype and RBV coadministration on exposures [7] | impact of Compound 2 on Compound 1 exposures ([7]; coadministration) | steady-state Cmax, AUC24, and C24 in plasma, change [8] [%] | steady-state AUC24 in plasma, increase [9] [%] | steady-state C24 in plasma, increase [9] [%] | steady-state Cmax in plasma, increase [9] [%] | severity of adverse events ([10]; SAD 1.5-600 mg, MAD 30-600 mg QD 10 days) | maximum tolerated dose ([10]; SAD and MAD portions) | dose-normalized Cmax and AUCt, change [11] [%]
1 | CC(C)(C)[C@@H]1NC(=O)O[C@@H]2CCC[C@H]2OC/C=C/C(F)(F)c2nc3ccccc3nc2O[C@@H]2C[C@@H](C(=O)N[C@]3(C(=O)NS(=O)(=O)C4(C)CC4)C[C@H]3C(F)F)N(C2)C1=O [Compound 1] | 1400 | 1800 | 1500 | 1100 | nearly equivalent to that against wild-type HCV replicon | retained its activity | potent activity | nearly equivalent to that against wild-type HCV replicon | retained its activity | potent activity | no impact | minimal impact |  |  |  |  |  |  | 
2 | COC(=O)N[C@H](C(=O)N1CCC[C@H]1c1nc2cc([C@H]3CC[C@H](c4cc5nc([C@@H]6CCCN6C(=O)[C@@H](NC(=O)OC)[C@@H](C)OC)[nH]c5cc4F)N3c3cc(F)c(N4CCC(c5ccc(F)cc5)CC4)c(F)c3)c(F)cc2[nH]1)[C@@H](C)OC [Compound 2] |  |  |  |  |  |  |  |  |  |  | no impact |  | ≤ 2 | 22 | 26 | 11 | mild | not reached | 
3 | C=CCN1CC[C@]23c4c5ccc(O)c4O[C@H]2C(=O)CC[C@@]3(O)[C@H]1C5 [naloxone] |  |  |  |  |  |  |  |  |  |  |  |  |  |  |  |  |  |  | ≤ 12
